The values below come from ChEMBL document CHEMBL1255488, “Semimechanistic pharmacokinetic-pharmacodynamic model with adaptation development for time-kill experiments of ciprofloxacin against Pseudomonas aeruginosa” (2010).

Molecules are shown by their SMILES. In brackets after ≈: the same amount, converted by molar mass.

The test system of test [1] is Pseudomonas aeruginosa. Briefly: microbe, parasite or virus in culture. Conditions: PAO1.
Description: Antimicrobial activity against 0.12 ug/ml compound pre-treated Pseudomonas aeruginosa PAO1 in presence of 0.5 ug/ml of compound during plating experiment by microdilution method in presence of 40 ug/ml efflux-pump inhibitor PAbetaN
The test system of test [2] is Pseudomonas aeruginosa. The test is described as follows: microbe, parasite or virus in culture. Conditions: PAO1. This is another data set of the same source.
Description: Antimicrobial activity against 0.12 ug/ml compound pre-treated Pseudomonas aeruginosa PAO1 in presence of 1 ug/ml of compound during plating experiment by microdilution method in presence of 40 ug/ml efflux-pump inhibitor PAbetaN
Test [3] has as its system Pseudomonas aeruginosa. The test is described as follows: microbe, parasite or virus in culture. The conditions noted are these: PAO1. The source holds these as a separate data set.
Description: Antimicrobial activity against 0.25 ug/ml compound pre-treated Pseudomonas aeruginosa PAO1 in presence of 0.25 ug/ml of compound during plating experiment by microdilution method
Test [4] has as its system Pseudomonas aeruginosa. Briefly: Antimicrobial activity against Pseudomonas aeruginosa PAO1 by microdilution method in presence of 40 ug/ml efflux-pump inhibitor PAbetaN.
In test [5] the test system is Pseudomonas aeruginosa. The test is described as follows: microbe, parasite or virus in culture. The conditions noted are these: PAO1. This is another data set of the same source.
Description: Antimicrobial activity against 0.25 ug/ml compound pre-treated Pseudomonas aeruginosa PAO1 in presence of 0.25 ug/ml of compound during plating experiment by microdilution method in presence of 40 ug/ml efflux-pump inhibitor PAbetaN
Test [6] deals with Pseudomonas aeruginosa. The test is described as follows: microbe, parasite or virus in culture. The conditions noted are these: PAO1. The source holds these as a separate data set.
Description: Antimicrobial activity against 0.25 ug/ml compound pre-treated Pseudomonas aeruginosa PAO1 in presence of 1 ug/ml of compound during plating experiment by microdilution method in presence of 40 ug/ml efflux-pump inhibitor PAbetaN
Test [7] concerns Pseudomonas aeruginosa. The test is described as follows: microbe, parasite or virus in culture. The conditions noted are these: PAO1. This is another data set of the same source.
Description: Antimicrobial activity against 0.25 ug/ml compound pre-treated Pseudomonas aeruginosa PAO1 by microdilution method
Test [8] deals with Pseudomonas aeruginosa. Briefly: microbe, parasite or virus in culture. Conditions: PAO1. The source holds these as a separate data set.
Description: Antimicrobial activity against 0.12 ug/ml compound pre-treated Pseudomonas aeruginosa PAO1 by microdilution method
For test [9], the system named is Pseudomonas aeruginosa. The test is described as follows: microbe, parasite or virus in culture. The conditions noted are these: PAO1. The source holds these as a separate data set.
Description: Antimicrobial activity against 0.12 ug/ml compound pre-treated Pseudomonas aeruginosa PAO1 by microdilution method in presence of 40 ug/ml efflux-pump inhibitor PAbetaN
Test [10] relates to Pseudomonas aeruginosa. The test is described as follows: microbe, parasite or virus in culture. The conditions noted are these: PAO1. The source holds these as a separate data set.
Description: Antimicrobial activity against 0.12 ug/ml compound pre-treated Pseudomonas aeruginosa PAO1 in presence of 0.25 ug/ml of compound during plating experiment by microdilution method
The subject of test [11] is Pseudomonas aeruginosa. Briefly: microbe, parasite or virus in culture. The conditions noted are these: PAO1. The source holds these as a separate data set.
Description: Antimicrobial activity against 0.25 ug/ml compound pre-treated Pseudomonas aeruginosa PAO1 in presence of 0.5 ug/ml of compound during plating experiment by microdilution method
For test [12], the system named is Pseudomonas aeruginosa. Briefly: Antimicrobial activity against Pseudomonas aeruginosa PAO7H by microdilution method.
Test [13] has as its system Pseudomonas aeruginosa. The test is described as follows: microbe, parasite or virus in culture. Conditions: PAO1. This is another data set of the same source.
Description: Antimicrobial activity against 0.12 ug/ml compound pre-treated Pseudomonas aeruginosa PAO1 in presence of 2 ug/ml of compound during plating experiment by microdilution method in presence of 40 ug/ml efflux-pump inhibitor PAbetaN
Test [14] relates to Pseudomonas aeruginosa. Briefly: Antimicrobial activity against Pseudomonas aeruginosa PAO7H by microdilution method in presence of 40 ug/ml efflux-pump inhibitor PAbetaN. A general note: In broth dilution the organism is exposed to a series of concentrations in liquid medium.
Test [15] has as its system Pseudomonas aeruginosa. The test is described as follows: microbe, parasite or virus in culture. Conditions: PAO1. The source holds these as a separate data set.
Description: Antimicrobial activity against 0.12 ug/ml compound pre-treated Pseudomonas aeruginosa PAO1 in presence of 0.25 ug/ml of compound during plating experiment by microdilution method in presence of 40 ug/ml efflux-pump inhibitor PAbetaN
Test [16] relates to Pseudomonas aeruginosa. Briefly: microbe, parasite or virus in culture. The conditions noted are these: PAO1. This is another data set of the same source.
Description: Antimicrobial activity against 0.25 ug/ml compound pre-treated Pseudomonas aeruginosa PAO1 in presence of 0.5 ug/ml of compound during plating experiment by microdilution method in presence of 40 ug/ml efflux-pump inhibitor PAbetaN
Test [17] concerns Pseudomonas aeruginosa. The test is described as follows: microbe, parasite or virus in culture. Conditions: PAO1. The source holds these as a separate data set.
Description: Antimicrobial activity against 0.25 ug/ml compound pre-treated Pseudomonas aeruginosa PAO1 in presence of 1 ug/ml of compound during plating experiment by microdilution method
For test [18], the system named is Pseudomonas aeruginosa. The test is described as follows: microbe, parasite or virus in culture. The conditions noted are these: PAO1. The source holds these as a separate data set.

In the case of `O=C(O)c1cn(C2CC2)c2cc(N3CCNCC3)c(F)cc2c1=O` [CIPROFLOXACIN], the MIC against Pseudomonas aeruginosa [1] amounted to 0.12 µg/mL (≈ 0.362 µM); against Pseudomonas aeruginosa [2] it was 0.12 µg/mL (≈ 0.362 µM); in the test with Pseudomonas aeruginosa [3], 1 µg/mL (≈ 3.02 µM); in the test with Pseudomonas aeruginosa [4] it was 0.06 µg/mL; in the test on Pseudomonas aeruginosa [5], 0.12 µg/mL (≈ 0.362 µM); against Pseudomonas aeruginosa [6], 0.12 µg/mL (≈ 0.362 µM). For the same compound, the MIC against Pseudomonas aeruginosa [7] is 1 µg/mL (≈ 3.02 µM); against Pseudomonas aeruginosa [8], 1 µg/mL (≈ 3.02 µM); with Pseudomonas aeruginosa [9], 0.06 µg/mL (≈ 0.181 µM); in the test on Pseudomonas aeruginosa [10], 1 µg/mL (≈ 3.02 µM); against Pseudomonas aeruginosa [11], 1 µg/mL (≈ 3.02 µM); against Pseudomonas aeruginosa [12] it was 1 µg/mL (≈ 3.02 µM). The MIC against Pseudomonas aeruginosa [13] is 0.12 µg/mL (≈ 0.362 µM); in the test with Pseudomonas aeruginosa [14] it was 0.06 µg/mL; in the test on Pseudomonas aeruginosa [15], 0.12 µg/mL (≈ 0.362 µM); in the test on Pseudomonas aeruginosa [16] it was 0.12 µg/mL (≈ 0.362 µM); against Pseudomonas aeruginosa [17] it was 1 µg/mL (≈ 3.02 µM); against Pseudomonas aeruginosa [18], 0.06 µg/mL (≈ 0.181 µM).
